Laboratory results as given in PubChem BioAssay (NCI).
“And” between values parts separate entries of the source, which are not always exact repeats. Identical values can stand only once.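 1) Cells in 96-well plates. 2) Compound, 48 h, 5 concentrations. 3) Linear interpolation between surrounding doses. 4) Unreached endpoint = highest concentration. GI50 = concentration required for 50% inhibition of growth. TGI denotes the concentration required for complete inhibition of growth.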

Test system: MDA-MB-468 breast
Experiment: NCI tumour cell line growth inhibition, 48 h

SMILES | GI50 | TGI
Cc1c2cccnc2c(C)c2c1c1cc(CO)ccc1n2C | 183 nM | 561 nM
NCCCNc1nc2ccccc2c2c(=O)c3cc(OC(F)(F)F)ccc3sc12 | 1760 nM | 3420 nM
COc1cc2c(cc1OC)C(Sc1ccc(C)cc1)c1c(nc(N)c(C#N)c1N)O2 (stereo not drawn) | 1160 nM | 2500 nM
C=C(C=O)C1CCC2(C(=O)O)CCC3(C)C(CCC4C5(C)CCC(O)C(C)(C)C5CCC43C)C12 (stereo not drawn) | 3270 nM | 20600 nM
C=C(F)C(=O)N1CCN(c2nc(OC[C@@H]3CCCN3C)nc3c2CCN(c2cccc4cccc(Cl)c24)C3)C[C@@H]1CC#N | 1220 nM | 2580 nM
C[C@H]1c2cccc(O)c2C(O)=C2C(=O)[C@]3(O)C(O)=C(C(N)=O)C(=O)[C@@H](N(C)C)[C@@H]3[C@@H](O)[C@@H]21 | 2050 nM | 6440 nM
COc1cc(C2c3cc4c(cc3OC(N3CCCC3)C2C)OCO4)cc(OC)c1O (stereo not drawn) | 17500 nM | > 100000 nM
Cn1cc(C2=C(c3ccc4ccccc4c3)C(=O)NC2=O)c2ccccc21 | 6240 nM | > 25000 nM
O=[N+]([O-])c1ccc(C=C2C(Cl)=C(Cl)C(Cl)=C2Cl)cc1 | 1700 nM | 3350 nM
CC(C)c1ccc(Nc2ccc3c(OCCCN4CCN(C)CC4)cccc3n2)cc1 | 12300 nM | 26000 nM
C#Cc1cccc(Nc2ncnc3cc(OC)c(OCCCCCCC(=O)NO)cc23)c1 | 7.53 nM | 81.4 nM
O=C1NC(=Nc2ccccc2)S/C1=C\c1ccc2ncccc2c1 | 2060 nM | > 25000 nM
CC[C@]12C=CCN3CC[C@@]4(c5ccc(OC)cc5N(C)[C@H]4[C@@](O)(C(=O)OC)[C@@H]1OC(=O)CCC[P+](c1ccccc1)(c1ccccc1)c1ccccc1)[C@@H]32 | 123 nM and 217 nM | 377 nM and 653 nM
COCCOc1cc(F)c2c(Nc3ccc(NC(=O)Cn4cc(C(C)C)nn4)cc3)ncnc2c1 | 57100 nM | > 100000 nM
COC(=O)/C=C/c1cc(O)c2oc(-c3ccc(O)c(O)c3)c(C(=O)OC)c2c1 | 1820 nM | 12900 nM
Oc1ccc(Cl)cc1Cc1cc(Cl)cc(Cl)c1O | 2790 nM | 9410 nM
Ic1ccc(Nc2nc3nonc3nc2Nc2ccc(I)cc2)cc1 | 174 nM | 1690 nM
COc1cc(Nc2cn[nH]c2-c2ccc(Cl)cc2)cc(OC)c1OC | 1600 nM | 6400 nM
COc1ccc(C2CC(c3cccc(Nc4ccncc4)c3)=NN2c2cc(Cl)cc(Cl)c2)cc1 (stereo not drawn) | 1630 nM | 3290 nM
CCN1CCN(c2ccc(Nc3cc(N(C)C(=O)Nc4c(Cl)c(OC)cc(OC)c4Cl)ncn3)cc2)CC1 | 3010 nM | 11700 nM
CC(C)(C)C(=O)OCOP(=O)(OCOC(=O)C(C)(C)C)C1CCCN(O)C1=O (stereo not drawn) | 977 nM | 5480 nM
Cc1ccc2c(n1)C(=O)c1[nH]c3ccccc3c1C2=O | 510 nM | 3300 nM

SMILES | GI50 | TGI
CC1OC2CC(=O)OC2C2=C1C(=O)c1c(O)cccc1C2=O (stereo not drawn) | 20.8 nM | 52.5 nM
O=c1n(CC2CO2)c(=O)n(CC2CO2)c(=O)n1CC1CO1 (stereo not drawn) | 2260 nM | 11300 nM
CC/C(=C(/c1ccc(OCCN(C)C)cc1)c1ccc(OC(=O)CCCCC(=O)c2c(C)[nH]c(/C=C3\N=C(c4ccc[nH]4)C=C3OC)c2C)cc1)c1ccccc1 | 2470 nM | 14700 nM
O=S(=O)(Nc1cc(F)cc(Cl)c1)c1ccc(-c2cnc(C3CC3)o2)cc1 | 491 nM | 6780 nM
O=C(OCc1ccc2cccc(O)c2n1)N1CCN(C(=O)c2cc3cc(F)ccc3[nH]2)CC1 | 1510 nM | 3280 nM
CCC[CH2][Sn]([CH2]CCC)([CH2]CCC)[O]C(=O)CC | 127 nM | 258 nM
COc1ncnc(C2CC2)c1-c1ncc2cnn(Cc3ccc(-c4nc(C(F)(F)F)cn4C(C)C)cc3)c2n1 | 3770 nM | 38300 nM
CNCCCn1cc(C2=C(c3cn(C)c4ccccc34)C(=O)NC2=O)c2ccccc21 | 3590 nM | 7330 nM
NC(=NCCCOc1ccc(Cl)cc1)Nc1ccc(C(F)(F)F)cc1 | 1630 nM | 3610 nM
COc1cc(C(=O)c2cc(C)c3[nH]c4ccc(Cl)cc4c3c2C)cc(OC)c1OC | 38.5 nM | 4840 nM
O=C(Nc1ccc(OS(=O)(=O)c2ccccc2)cc1)C12CC3CC(CC(C3)C1)C2 | 3800 nM | > 100000 nM
COc1ccc(N(C)c2ncnc3occ(C)c23)cc1 | < 10 nM | 15400 nM
Cc1nc(N)sc1-c1ccnc(Nc2ccc(N3CCOCC3)cc2)n1 | 611 nM | > 100000 nM
COc1ccc(C(=O)c2cc(OC)c(C)c(OC)c2)cc1OC(=O)CCl | 2390 nM | 21600 nM
COc1ccc2c(c1)C(C)Cc1c(Cl)ncnc1N2C (stereo not drawn) | 276 nM | 804 nM
Cc1ccc(C(SCC(N)C(=O)O)(c2ccccc2)c2ccc(C)cc2)cc1 (stereo not drawn) | 118 nM | 533 nM
Clc1ccc2c(NCCCNc3nccc(Nc4ccc(Br)cc4)n3)ccnc2c1 | 1610 nM | 3210 nM
CCOc1nc(-c2ccccc2)cc2c(O)c(-c3nnco3)[nH]c(=O)c12 | 1550 nM | > 25800 nM
C=C(C)[C@@]12OC3(/C=C/C=C/CCCCC)O[C@@H]1[C@@H]1[C@@H]4O[C@]4(CO)[C@@H](O)[C@]4(O)C(=O)C(C)=C[C@H]4[C@@]1(O3)[C@H](C)[C@H]2OC(=O)c1ccccc1 | 1370 nM | 2920 nM
CC(SC(C)C(=O)N/N=C/c1cccc(Cl)c1)C(=O)N/N=C\c1cccc(Cl)c1 (stereo not drawn) | 21700 nM | 52900 nM
Cn1c(=O)c2c(nc(Nc3cc(=O)[nH]c(=O)[nH]3)n2Cc2ccccc2)n(C)c1=O | 54800 nM | > 100000 nM
C/C(=C\CCc1ccoc1)CC/C=C(\C)CCCC1=CC(=O)OC1 | 2190 nM | 8410 nM
